Results as given in ChEMBL document CHEMBL1201862, “PubChem BioAssay data set” (2004).
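Step 1: Grow cells in 96-well plates. Step 2: Expose to compound for 48 hours at 5 concentrations. Step 3: Interpolate endpoints linearly; if unreached, use highest concentration. GI50 is the concentration that inhibits growth by half.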 Active and inactive are the calls of the source. No stated cut-off is given here; in the data, active = GI50 up to about 1.1 µM and inactive = higher.

Legend:
Assay in all cases: DTP human tumour cell line panel, 48 h
HOP-92 = system: HOP-92
SF-268 = system: SF-268
SW-620 = system: SW-620
UO-31 = system: UO-31
TK-10 = system: TK-10
CCRF-CEM = system: CCRF-CEM
A549 = system: A549
NCI-H226 = system: NCI-H226
IGROV-1 = system: IGROV-1
M14 = system: M14
SK-MEL-2 = system: SK-MEL-2
SF-295 = system: SF-295
HOP-62 = system: HOP-62
DMS-114 = system: DMS-114
U-251 = system: U-251
MDA-N = system: MDA-N
Hs-578T = system: Hs-578T
DU-145 = system: DU-145
NCI/ADR-RES = system: NCI/ADR-RES
MDA-MB-231 = system: MDA-MB-231

Row | Structure (SMILES) | GI50 (HOP-92) | GI50 (SF-268) | GI50 (SW-620) | GI50 (UO-31) | GI50 (TK-10) | GI50 (CCRF-CEM) | GI50 (A549) | GI50 (NCI-H226) | GI50 (IGROV-1) | GI50 (M14) | GI50 (SK-MEL-2) | GI50 (SF-295) | GI50 (HOP-62) | GI50 (DMS-114) | GI50 (U-251) | GI50 (MDA-N) | GI50 (Hs-578T) | GI50 (DU-145) | GI50 (NCI/ADR-RES) | GI50 (MDA-MB-231)
1 | C=CCN(N=O)C(=O)N(CCC)CCCCC(NC(C)=O)C(=O)NCc1ccccc1 (centres undefined) | 23.2 µM (inactive) | > 100 µM (inactive) | > 100 µM (inactive) | 88.1 µM (inactive) | > 100 µM (inactive) | 33.7 µM (inactive) | > 100 µM (inactive) | > 100 µM (inactive) | > 100 µM (inactive) | > 100 µM (inactive) | > 100 µM (inactive) | > 100 µM (inactive) | > 100 µM (inactive) | 59.2 µM (inactive) | > 100 µM (inactive) |  |  |  |  | 
2 | COc1cc2c(c(OC)c1OC)-c1ccc(SC)c(=O)cc1C(CC(=O)Oc1cccc(C#N)c1)C2 (centres undefined) | 2.31 µM (inactive) | 0.512 µM (active) | 0.327 µM (active) | 1.67 µM (inactive) |  | 0.337 µM (active) | 0.516 µM (active) | 0.222 µM (active) | 2.06 µM (inactive) | 0.298 µM (active) | 0.348 µM (active) | 0.266 µM (active) | 0.638 µM (active) | 0.251 µM (active) | 0.354 µM (active) |  |  |  |  | 
3 | CCc1cc(Cc2ccc(C)c(NC(=O)C(=O)C3C(=O)NC(=O)NC3=O)c2CC)cc(C)c1NC(=O)C(=O)C1C(=O)NC(=O)NC1=O |  | > 100 µM (inactive) | > 100 µM (inactive) | > 100 µM (inactive) | > 100 µM (inactive) | > 100 µM (inactive) | > 100 µM (inactive) |  | > 100 µM (inactive) | > 100 µM (inactive) | > 100 µM (inactive) |  | > 100 µM (inactive) | > 100 µM (inactive) | > 100 µM (inactive) |  |  |  |  | 
4 | CC(=O)Nc1ccccc1-c1cnc2ccccc2n1 | > 100 µM (inactive) | > 100 µM (inactive) | > 100 µM (inactive) |  | > 100 µM (inactive) | > 100 µM (inactive) | > 100 µM (inactive) | > 100 µM (inactive) | > 100 µM (inactive) | > 100 µM (inactive) |  | > 100 µM (inactive) | > 100 µM (inactive) | > 100 µM (inactive) | > 100 µM (inactive) |  |  |  |  | 
5 | Cc1cc(NS(=O)(=O)c2ccc(NC(=O)c3ccc(Cl)c4c(Nc5ccc(S(N)(=O)=O)cc5)c5ccccc5nc34)cc2)no1 | 19.7 µM (inactive) | 12.9 µM (inactive) | 17.4 µM (inactive) | 23.2 µM (inactive) | 27 µM (inactive) |  | 66.5 µM (inactive) | 20.3 µM (inactive) | 21.2 µM (inactive) | 26.9 µM (inactive) |  | 25.1 µM (inactive) | 21.2 µM (inactive) | 20.2 µM (inactive) | 11.5 µM (inactive) |  |  |  |  | 
6 | Cn1c(=O)c2nc(N3CCOCC3)cnc2n(C)c1=O | > 100 µM (inactive) | > 100 µM (inactive) | > 100 µM (inactive) | > 100 µM (inactive) | > 100 µM (inactive) | > 100 µM (inactive) | > 100 µM (inactive) |  | > 100 µM (inactive) | > 100 µM (inactive) | > 100 µM (inactive) | > 100 µM (inactive) | > 100 µM (inactive) | > 100 µM (inactive) | > 100 µM (inactive) |  |  |  |  | 
7 | OCCCCOC(c1ccccc1)(c1ccccc1)c1ccccc1 | > 100 µM (inactive) | > 100 µM (inactive) | > 100 µM (inactive) | > 100 µM (inactive) | > 100 µM (inactive) | > 100 µM (inactive) | > 100 µM (inactive) | > 100 µM (inactive) | > 100 µM (inactive) | > 100 µM (inactive) |  | > 100 µM (inactive) | > 100 µM (inactive) | > 100 µM (inactive) | > 100 µM (inactive) |  |  |  |  | 
8 | O=c1cc(N2CCOCC2)oc2c(-c3ccccc3)cccc12 [LY-294002] | 9.04 µM (inactive) | 2.28 µM (inactive) | 21.7 µM (inactive) | 15.8 µM (inactive) | 23.7 µM (inactive) | 39.1 µM (inactive) | 4.79 µM (inactive) | 3.93 µM (inactive) | 2.49 µM (inactive) | 11.1 µM (inactive) | 9.93 µM (inactive) | 6.53 µM (inactive) | 4.59 µM (inactive) |  | 19.5 µM (inactive) | 11.8 µM (inactive) | 1.9 µM (inactive) | 12.4 µM (inactive) | 4.76 µM (inactive) | 3.13 µM (inactive)
9 | CCOC(=O)CNC1C(NC(C)=O)C(OC)OC2COC(c3ccccc3)OC21 (centres undefined) | > 100 µM (inactive) | > 100 µM (inactive) | > 100 µM (inactive) | > 100 µM (inactive) | > 100 µM (inactive) | > 100 µM (inactive) | > 100 µM (inactive) | > 100 µM (inactive) | > 100 µM (inactive) | > 100 µM (inactive) | > 100 µM (inactive) | > 100 µM (inactive) |  | > 100 µM (inactive) | > 100 µM (inactive) |  |  |  |  | 
10 | CN(Nc1cc(=O)[nH]c(=O)[nH]1)c1ccccc1 | > 100 µM (inactive) | > 100 µM (inactive) | > 100 µM (inactive) | > 100 µM (inactive) | > 100 µM (inactive) | > 100 µM (inactive) | > 100 µM (inactive) | > 100 µM (inactive) | > 100 µM (inactive) | > 100 µM (inactive) | > 100 µM (inactive) | > 100 µM (inactive) | > 100 µM (inactive) |  | > 100 µM (inactive) | > 100 µM (inactive) | 52 µM (inactive) | > 100 µM (inactive) | > 100 µM (inactive) | > 100 µM (inactive)
11 | COc1cc(Br)c(CC2(C#N)c3ccccc3C3C(N2C(=O)c2ccccc2)C3(Cl)Cl)cc1OC (centres undefined) | > 65.5 µM (inactive) | > 65.5 µM (inactive) | > 65.5 µM (inactive) | 50.6 µM (inactive) | > 65.5 µM (inactive) | > 65.5 µM (inactive) | > 65.5 µM (inactive) | > 65.5 µM (inactive) | > 65.5 µM (inactive) | 42.4 µM (inactive) | > 65.5 µM (inactive) |  |  | 16.3 µM (inactive) | 39.4 µM (inactive) |  |  |  |  | 
12 | CCOC(=O)/C(=C\c1ccc(C#N)cc1)C(C)=O | 17.4 µM (inactive) | 25.2 µM (inactive) | 21.2 µM (inactive) | 13.8 µM (inactive) | 24 µM (inactive) | 13.5 µM (inactive) | 60.8 µM (inactive) | 35.1 µM (inactive) | 16.8 µM (inactive) | 30 µM (inactive) | 15.2 µM (inactive) | 34.5 µM (inactive) | 36.8 µM (inactive) |  | 16.2 µM (inactive) | 31.1 µM (inactive) | 24.3 µM (inactive) | 18.2 µM (inactive) | 28.1 µM (inactive) | 15.6 µM (inactive)
13 | NCCS(=O)(=O)O [TAURINE] | > 100 µM (inactive) | > 100 µM (inactive) | > 100 µM (inactive) | > 100 µM (inactive) | > 100 µM (inactive) | > 100 µM (inactive) | > 100 µM (inactive) | > 100 µM (inactive) | > 100 µM (inactive) | > 100 µM (inactive) | > 100 µM (inactive) | > 100 µM (inactive) | > 100 µM (inactive) |  | > 100 µM (inactive) | > 100 µM (inactive) | > 100 µM (inactive) | > 100 µM (inactive) | > 100 µM (inactive) | > 100 µM (inactive)
14 | O=C(NCCO)c1ccc(Cl)cc1 | > 100 µM (inactive) | > 100 µM (inactive) | > 100 µM (inactive) | > 100 µM (inactive) | > 100 µM (inactive) | 26.1 µM (inactive) | > 100 µM (inactive) | > 100 µM (inactive) | > 100 µM (inactive) | > 100 µM (inactive) | > 100 µM (inactive) | > 100 µM (inactive) | > 100 µM (inactive) |  | > 100 µM (inactive) | > 100 µM (inactive) | > 100 µM (inactive) | > 100 µM (inactive) | > 100 µM (inactive) | > 100 µM (inactive)
15 | C=CS(=O)(=O)c1c2cc(OC)ccc2nc2ccc(OC)cc12 | 5.33 µM (inactive) | 8.57 µM (inactive) | 3.12 µM (inactive) | 3.08 µM (inactive) | 7.62 µM (inactive) | 3.22 µM (inactive) | 17.1 µM (inactive) | 15.6 µM (inactive) | 2.92 µM (inactive) | 7.46 µM (inactive) | 19 µM (inactive) | 15 µM (inactive) | 14.8 µM (inactive) |  | 7.05 µM (inactive) | 3.5 µM (inactive) | 2.97 µM (inactive) | 3.53 µM (inactive) | 10.4 µM (inactive) | 15.5 µM (inactive)
16 | COC(=O)c1ccccc1CC(Cc1ccc2c(c1)CCC2)C(=O)OC (centres undefined) | > 100 µM (inactive) | > 100 µM (inactive) | > 100 µM (inactive) | > 100 µM (inactive) | > 100 µM (inactive) | 47.3 µM (inactive) | > 100 µM (inactive) | 57.5 µM (inactive) | > 100 µM (inactive) | > 100 µM (inactive) | > 100 µM (inactive) | > 100 µM (inactive) | > 100 µM (inactive) |  | > 100 µM (inactive) | 62.4 µM (inactive) | > 100 µM (inactive) | > 100 µM (inactive) | > 100 µM (inactive) | > 100 µM (inactive)
17 | CC1OC(OC2C(O[C@@H]3C[C@@H]4CC[C@@H]5[C@H](CC[C@]6(C)C7C(C[C@@H]56)O[C@]5(CC[C@@H](C)CO5)[C@H]7C)[C@@]4(C)C[C@H]3O)OC(CO)C(O)C2O)C(O)C(O)C1O (some centres undefined) | 2.8 µM (inactive) | 1.91 µM (inactive) | 1.93 µM (inactive) | 1.78 µM (inactive) | 1.76 µM (inactive) | 1.93 µM (inactive) | 1.86 µM (inactive) | 2.84 µM (inactive) | 1.73 µM (inactive) | 1.79 µM (inactive) | 1.78 µM (inactive) | 1.83 µM (inactive) | 2 µM (inactive) |  | 1.68 µM (inactive) | 2.47 µM (inactive) | 2.54 µM (inactive) | 1.84 µM (inactive) | 1.94 µM (inactive) | 1.78 µM (inactive)
